# From patent publication US20220081444A1, “6,7-DIHYDRO-4H-PYRAZOLO[1,5-A]PYRAZINE INDOLE-2-CARBOXAMIDES ACTIVE AGAINST THE HEPATITIS B VIRUS (HBV)” (AiCuris GmbH & Co. KG, priority 2018, published 2022)
# Structures can show the parent of a compound that is named as a salt. Where two headings read alike, the source gives them in different places.
# Legend:
# [1] = in vitro; conditions: human
# [2] = test system: HBV; conditions: read-out: Cell Activity (EC50)
# [3] = test system: HepAD38 cells; assay: Cell viability assay (AlamarBlue cytotoxicity); conditions: HepAD38 cells in the presence of 0.3 μg/ml tetracycline, six days incubation
# [4] = Hepatitis B virus, HePAD38, 144 h
Compound,"EC50 [2, 4] [µM]",other results
"CC1(S(=O)(=O)Nc2cc3n(n2)CCN(C(=O)c2cc4ccccc4[nH]2)C3)CC1 [Example 44, N-[5-(1H-indole-2-carbonyl)-4H,5H,6H,7H-pyrazolo[1,5-a]pyrazin-2-yl]-1-methylcyclopropane-1-sulfonamide]",< 1,CC50 [1]: > 10 µM
"O=C(Nc1cc2n(n1)CCN(C(=O)c1cc3ccccc3[nH]1)C2)C1CC2CC1CN2 (stereo not shown) [Example 82, N-[5-(1H-indole-2-carbonyl)-4H,5H,6H,7H-pyrazolo[1,5-a]pyrazin-2-yl]-2-azabicyclo[2.2.1]heptane-5-carboxamide dihydrochloride]",1 to 10,CC50 [1]: > 10 µM
"CCc1cc(F)cc2[nH]c(C(=O)N3CCn4nc(NCC5CCOC5)cc4C3)cc12 (stereo not shown) [Example 29, 5-(4-ethyl-6-fluoro-1H-indole-2-carbonyl)-N-[(oxolan-3-yl)methyl]-4H,5H,6H,7H-pyrazolo[1,5-a]pyrazin-2-amine]",< 1,CC50 [1]: > 10 µM
"O=C(Nc1cc2n(n1)CCN(C(=O)c1cc3ccccc3[nH]1)C2)[C@H]1CCNC[C@@H]1F [Example 86, (3R,4R)-3-fluoro-N-[5-(1H-indole-2-carbonyl)-4H,5H,6H,7H-pyrazolo[1,5-a]pyrazin-2-yl]piperidine-4-carboxamide dihydrochloride]",< 1,CC50 [1]: > 10 µM
"COC1CCC(Nc2cc3n(n2)CCN(C(=O)c2cc4ccccc4[nH]2)C3)CC1 (stereo not shown) [Example 80, 5-(1H-indole-2-carbonyl)-N-(4-methoxycyclohexyl)-4H,5H,6H,7H-pyrazolo[1,5-a]pyrazin-2-amine]",< 1,–
"CC(C)S(=O)(=O)Nc1cc2n(n1)CCN(C(=O)c1cc3ccccc3[nH]1)C2 [Example 47, N-[5-(1H-indole-2-carbonyl)-4H,5H,6H,7H-pyrazolo[1,5-a]pyrazin-2-yl]propane-2-sulfonamide]",< 1,–
"3-yl)methyl]-4H,5H, 6H,7H-pyrazolo[1,5-a]pyrazin-2-amine [Example 25]",–,"CC50 [3]: > 10 µM; EC50 ([2]; HBV DNA in HepAD38 supernatant at day 6, qPCR): < 1 µM"
"O=C(c1cc2ccccc2[nH]1)N1CCn2nc(NS(=O)(=O)C3CCOCC3)cc2C1 [Example 53, N-[5-(1H-indole-2-carbonyl)-4H,5H,6H,7H-pyrazolo[1,5-a]pyrazin-2-yl]oxane-4-sulfonamide]",< 1,–
"O=C(c1cc2ccccc2[nH]1)N1CCn2nc(NCC3(CO)CCC3)cc2C1 [Example 79, [1-({[5-(1H-indole-2-carbonyl)-4H,5H,6H,7H-pyrazolo[1,5-a]pyrazin-2-yl]amino}methyl)cyclobutyl]methanol]",< 1,–
"O=C(c1cc2ccccc2[nH]1)N1CCn2nc(NC3(CO)CC3)cc2C1 [Example 92, (1-{[5-(1H-indole-2-carbonyl)-4H,5H,6H,7H-pyrazolo[1,5-a]pyrazin-2-yl]amino}cyclopropyl)methanol]",< 1,–
"Nc1cc2n(n1)CCN(C(=O)c1cc3ccccc3[nH]1)C2 [Example 34, 5-(1H-indole-2-carbonyl)-4H,5H, 6H,7H-pyrazolo[1,5-a]pyrazin-2-amine]",< 1,–
"O=C(Nc1cc2n(n1)CCN(C(=O)c1cc3ccccc3[nH]1)C2)C1CCN(CCO)CC1 [Example 62, 1-(2-hydroxyethyl)-N-[5-(1H-indole-2-carbonyl)-4H,5H,6H,7H-pyrazolo[1,5-a]pyrazin-2-yl]piperidine-4-carboxamide]",1 to 10,–
"O=C(c1cc2ccccc2[nH]1)N1CCn2nc(NC3(CO)CCC3)cc2C1 [Example 90, (1-{[5-(1H-indole-2-carbonyl)-4H,5H,6H,7H-pyrazolo[1,5-a]pyrazin-2-yl]amino}cyclobutyl)methanol]",< 1,–
"CC(=O)N1CCC(C(=O)Nc2cc3n(n2)CCN(C(=O)c2cc4ccccc4[nH]2)C3)CC1 [Example 42, 1-acetyl-N-[5-(1H-indole-2-carbonyl)-4H,5H,6H,7H-pyrazolo[1,5-a]pyrazin-2-yl]piperidine-4-carboxamide]",< 1,–
"CN1CCC(C(=O)Nc2cc3n(n2)CCN(C(=O)c2cc4ccccc4[nH]2)C3)C(F)(F)C1 (stereo not shown) [Example 87, 3,3-difluoro-N-[5-(1H-indole-2-carbonyl)-4H,5H,6H,7H-pyrazolo[1,5-a]pyrazin-2-yl]-1-methylpiperidine-4-carboxamide]",< 1,–
"O=C(Nc1cc2n(n1)CCN(C(=O)c1cc3c(Cl)cc(F)cc3[nH]1)C2)C1CCOC1 (stereo not shown) [Example 21, N-[5-(4-chloro-6-fluoro-1H-indole-2-carbonyl)-4H,5H,6H,7H-pyrazolo[1,5-a]pyrazin-2-yl]oxolane-3-carboxamide]",< 1,–
"Nc1cc2n(n1)CCN(C(=O)c1cc3c(F)cc(F)cc3[nH]1)C2 [Example 33, 5-(4,6-difluoro-1H-indole-2-carbonyl)-4H,5H,6H,7H-pyrazolo[1,5-a]pyrazin-2-amine]",< 1,–
